Patent US7824710B2, “Crystalline and stable form of andolast” (Rottapharm S.p.A., priority 2006, dated 2010)
Where “and” joins values, the source holds several entries; their conditions need not be identical. Equal values may be shown once. Read-outs that look alike come from different tables or passages of the source.

Legend:
Format in all cases: physicochemical
[1] = Solubility of the disodium salt in water; details: 25° C.
Description: N-4-(1H-tetrazol-5-yl)phenyl-4-(1H-tetrazol-5-yl)benzamide is prepared as described in WO 90/09989, Example 13 (herein incorporated by reference). The disodium salt of N-4-(1H-tetrazol-5-yl)phenyl-4-(1H-tetrazol-5-yl)benzamide can be prepared directly as the pentahydrate or precipitated as an undefined mixture of hydrates and then converted into the pentahydrate (Form A), by re-crystallization or by phase equilibration (slurry conversion: slurry in an appropriate solvent mixture). In both cases the disodium salt is obtained by adding to a suspension in water of N-4-(1H-tetrazol-5-yl)phenyl-4-(1H-tetrazol-5-yl)benzamide, an amount of aqueous sodium hydroxide or sodium alkoxide, ranging from 2.0 to 2.2 equivalents, preferably 2.1 equivalents, being sodium methoxide, sodium ethoxide and sodium isopropoxide the preferred alkoxide, at a temperature ranging from +15° to +40° C. […] The resulting mixture is stirred until the solid is completely dissolved, then the pH of the solution is carefully adjusted to 6.5-7.5, by addition of diluted hydrochloric acid, filtered and concentrated under vacuum, at a temperature not exceeding +60° C. […]

[2] = Moisture sorption/desorption by Differential Vapor Sorption (DVS); details: for R.H. at which substantial desorption (loss of water) starts: DVS scanning mode, 5% ΔR.H. per hour
Description: The moisture sorption/desorption behavior was analyzed for different solids using Differential Vapor Sorption (DVS) technique. In FIG. 8 is reported as an example the sorption/desorption isotherms for batch B/6272. […] Though the different batches were not characterized by exactly matching DVS diagrams all reached the about 20% water content after an appropriate time.
This surprising stability to moisture of Form A is also confirmed by DVS experiments. In the scanning mode, water is only lost when about 0% R.H. is reached. Moisture sorption/desorption behavior for the pentahydrate is reported in Example 9 (FIG. 14).
Water vapor sorption/desorption was analyzed using Surface Measurement System Ltd. DVS-1 apparatus. The sample was allowed to equilibrate at 50% R.H. before starting a predefinite humidity program, scanning with 5% ΔR.H. hour^−1 and with several “isohumid” equilibration periods (see FIG. 14 for details). The water content of the sample used for DVS was calculated on the basis of KF analysis, while crystalline form was assessed by FT-Raman spectroscopy. The DVS plots of water content vs. R.H. and R.H. vs. time are reported for Andolast disodium pentahydrate (Form A) in FIG. 14. It can be seen from the DVS plot that substantial desorption starts only at almost 0% RH.

[3] = Aerosol performance of dry powder formulation for inhalation by MSLI (Multi Step Liquid Impinger); details: dose 8 mg
Description: As discussed below Andolast disodium salt as Form A can be formulated according to several pharmaceutical compositions.

[4] = Stability to temperature and mechanical mill (Example 10); details: open sample 1 day at 50° C., then milled 10 min at 24 s−1 in ball swing mill
Description: about 1 g of Andolast disodium salt Form A was stored, as open sample, for 1 day at 50° C. The product was then milled for 10 min. at 24 s−1 in a ball swing mill. A sample was then analyzed by KF and FT-Raman spectroscopy.

[5] = ICH accelerated stability testing
[6] = Storage of open samples in humidity controlled chamber (stability to moisture, Example 8); details: 9 days; for FT-Raman / KF (water content) / XRPD: open sample
Description: The list of improved physical and mechanical characteristics reported below is intended at documenting representative examples of advantages Form A is endowed with over the undefined hydrated forms obtained according to uncontrolled conditions.
samples of Form A were stored, as open samples, in an humidity controlled chamber for 9 days, in Table 5 water content (KF), XRPD and FT-Raman spectra at the end-point of the experiment are reported vs. R.H. […]

[7] = Stability of crystalline form to jet mill micronization (Example 11); details: MC Jet Mill, nitrogen, 12 bar, about 10 g/30 sec, without cooling
Description: In Example 11 it is reported how Form A can be successfully micronized using conditions identical to the ones used for the micronization of the batch B/7081 (see FIGS. 7a and 7b for XRPD spectra) without altering XRPD and spectroscopic characteristics (Ft-Raman and FT-IR), thus proving Form A stability and crystalline form consistency also after the micronization step affording the suitable drug substance for preparing dry powder and pressurized HFA aerosols formulations for inhalation.
Andolast disodium form A is micronized, without cooling, using an MC Jet Mill apparatus, and nitrogen as carrier gas, at 12 bar and with a feeding rate of about 10 g/30 sec.

[8] = active ingredient/excipient 1:1, Mean of 6 MSLI runs
[9] = active ingredient/excipient 1:1, capsule inhaler, single MSLI runs 1-6
[10] = active ingredient/excipient 1:1, Mean of 6 MSLI runs, listed as Form A obtained at Example 3
[11] = active ingredient/excipient 1:1, capsule inhaler, single MSLI runs 1-6, listed as Form A obtained at Example 3

## O=C(Nc1ccc(-c2nn[n-]n2)cc1)c1ccc(-c2nn[n-]n2)cc1.[Na+].[Na+] [Andolast disodium salt, N-4-(1H-tetrazol-5-yl)phenyl-4-(1H-tetrazol-5-yl)benzamide disodium salt]
[1]
  solubility: ~150 mg/mL

## O=C(Nc1ccc(-c2nn[n-]n2)cc1)c1ccc(-c2nn[n-]n2)cc1.[Na+].[Na+] [B/6272, reference compound]
[2]
  hygroscopic character of the solid: strongly hygroscopic
[2]; DVS, continuous sorption of moisture
  water content at plateau of moisture sorption: about 20%

## O=C(Nc1ccc(-c2nn[n-]n2)cc1)c1ccc(-c2nn[n-]n2)cc1.[Na+].[Na+] [B/7080, reference compound]
[3]; [8]
  DD (Delivered Dose): 6.63 mg
  FPD (Fine Particle Dose): 1.12 mg
  FPF (Fine Particle Fraction): 17%
  MD (Metered Dose): 7.55 mg
  MMAD: 5.2 μm
[3]; [9]
  DD (Delivered Dose): 6.66 mg and 5.96 mg and 6.77 mg and 7.01 mg and 6.57 mg and 6.81 mg
  FPD (Fine Particle Dose): 0.96 mg and 0.99 mg and 1.21 mg and 1.01 mg and 1.23 mg and 1.30 mg
  MD (Metered Dose): 7.60 mg and 7.29 mg and 7.61 mg and 7.85 mg and 7.65 mg
  MMAD: 5.3 μm and 5.2 μm and 5.1 μm and 5.4 μm

## O=C(Nc1ccc(-c2nn[n-]n2)cc1)c1ccc(-c2nn[n-]n2)cc1.[Na+].[Na+] [Example 3]
[3]; [10]
  DD (Delivered Dose): 7.46 mg
  FPD (Fine Particle Dose): 2.16 mg
  FPF (Fine Particle Fraction): 29%
  MD (Metered Dose): 8.48 mg
  MMAD: 3.8 μm
[3]; [11]
  DD (Delivered Dose): 7.25 mg and 7.54 mg and 7.47 mg and 7.33 mg and 7.71 mg and 7.43 mg
  FPD (Fine Particle Dose): 1.96 mg and 2.07 mg and 2.58 mg and 1.97 mg and 2.18 mg and 2.20 mg
  FPF (Fine Particle Fraction): 27% and 35% and 28% and 30%
  MD (Metered Dose): 8.31 mg and 8.67 mg and 8.46 mg and 8.33 mg and 8.49 mg and 8.60 mg
  MMAD: 3.8 μm and 4.0 μm and 3.6 μm and 3.9 μm

## O=C(Nc1ccc(-c2nn[n-]n2)cc1)c1ccc(-c2nn[n-]n2)cc1.[Na+].[Na+] [Form A, N-4-(1H-tetrazol-5-yl)phenyl-4-(1H-tetra-zol-5yl)benzamide disodium salt]
[4]
  KF (water content): 19.53%
  crystalline change by Raman spectra: no crystalline change occurred
[5]
  stability (physical form and chemical stability): confirmed its stability
[6]; R.H. from 12% to 85%, room temperature
  Stability to moisture (water content and solid form): did not alter the water content of any sample, neither the solid form
[6]; RH 12%
  FT-Raman: Complies with Form A
  KF (water content): 19.26%
  XRPD: Complies with Form A
[6]; RH 22%
  FT-Raman: Complies with Form A
  KF (water content): 19.36%
  XRPD: Complies with Form A
[6]; RH 32%
  FT-Raman: Complies with Form A
  KF (water content): 19.34%
  XRPD: Complies with Form A
[6]; RH 53%
  FT-Raman: Complies with Form A
  KF (water content): 19.35%
  XRPD: Complies with Form A
[6]; RH 65%
  FT-Raman: Complies with Form A
  KF (water content): 19.25%
  XRPD: Complies with Form A
[6]; RH 75%
  FT-Raman: Complies with Form A
  KF (water content): 19.22%
  XRPD: Complies with Form A
[6]; RH 85%
  FT-Raman: Complies with Form A
  KF (water content): 19.43%
  XRPD: Complies with Form A
[7]
  changes in XRPD, FT-IR and FT-Raman versus not-micronized starting material: no changes were observed
[2]; disodium salt
  R.H. at which substantial desorption (loss of water) starts: about 0 % RH
[2]; listed as Andolast disodium pentahydrate (Form A), disodium salt
  R.H. at which substantial desorption (loss of water) starts: ~0 % RH
[2]; listed as Andolast disodium Form A, disodium salt
  hygroscopic character of the solid: not hygroscopic
